SMILES strings stand for the structures. Active and inactive are the calls of the source. The rule behind the calls is not given here.

Sequence of Ubiquitin carboxyl-terminal hydrolase 10 (Homo sapiens) (Q14694 whole entry, looked up): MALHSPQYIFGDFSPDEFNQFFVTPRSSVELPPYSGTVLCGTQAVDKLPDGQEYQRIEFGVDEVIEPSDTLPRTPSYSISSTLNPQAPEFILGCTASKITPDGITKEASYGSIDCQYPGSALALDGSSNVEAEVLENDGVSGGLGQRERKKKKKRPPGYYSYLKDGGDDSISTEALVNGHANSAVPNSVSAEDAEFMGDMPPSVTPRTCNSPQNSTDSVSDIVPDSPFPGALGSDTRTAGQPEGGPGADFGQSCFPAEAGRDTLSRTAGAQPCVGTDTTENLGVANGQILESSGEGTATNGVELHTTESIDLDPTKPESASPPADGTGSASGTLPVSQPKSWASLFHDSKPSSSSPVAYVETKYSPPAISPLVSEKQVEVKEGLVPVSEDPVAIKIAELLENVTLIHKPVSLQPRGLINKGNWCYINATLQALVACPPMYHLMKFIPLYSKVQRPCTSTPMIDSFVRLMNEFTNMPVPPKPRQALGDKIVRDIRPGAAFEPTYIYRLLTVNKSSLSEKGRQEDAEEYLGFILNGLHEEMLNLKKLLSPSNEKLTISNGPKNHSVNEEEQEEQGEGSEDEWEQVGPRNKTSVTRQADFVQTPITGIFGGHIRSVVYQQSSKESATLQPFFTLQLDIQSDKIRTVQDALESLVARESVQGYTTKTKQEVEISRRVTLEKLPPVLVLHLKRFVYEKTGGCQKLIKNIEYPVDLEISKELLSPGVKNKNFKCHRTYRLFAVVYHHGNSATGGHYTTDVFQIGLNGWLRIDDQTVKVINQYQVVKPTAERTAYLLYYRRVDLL

This experiment concerns the target Ubiquitin carboxyl-terminal hydrolase 10 (Homo sapiens) (UniProt Q14694). The experiment can be described thus: ubiquitin-specific protease 10 DUB inhibitors, concentration-effect, biochemical, verification of primary screen actives (AID 1645863).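 Note: potency values describe inhibition of USP10 cleavage of a fluorogenic ubiquitin substrate.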 The settings on record: USP10 deubiquitinase enzymatic assay.
A word on the IC50: it is the concentration that inhibits the measured activity by half. Regarding `O=C(NCc1ccc2c(c1)OCO2)c1cc2c(s1)CCC2`, the IC50 was 13.2 µM.

As to `COc1ccccc1-c1noc(CCCC(=O)Nc2ccccc2)n1`, the IC50 is > 40 µM (inactive).

In the case of `COc1ccc(NC(=O)Cn2c(C)cc(=O)n3nc(-c4cccc(C)c4)nc23)cc1`, the IC50 is 37 µM.

For the molecule `COc1c2nc3ccccc3oc-2cc(=O)c1OC`, the IC50 was > 40 µM (inactive).

Turning to `C=C/C(=C/C(=O)C[C@H](C)C[C@@H](C)CC[C@H](O)[C@H](C)C(=O)CC(O)[C@H](C)[C@@H](C)OC(=O)C[C@@H](O)C1=C(C)C(=O)OC1=O)CC` (stereo not given in full), the IC50 is 9.16 µM.

Take `O=C1CSC(c2ccc(F)cc2)c2c(n(C3CCCCCC3)[nH]c2=O)N1` (stereo not given): the IC50 is 32.4 µM.

`COc1ccc(OC)c(NC(=O)c2sc(-c3ccccc3)nc2C)c1`: the IC50 is 37 µM.

Turning to `O=C(COC(=O)c1ccc(NS(=O)(=O)c2ccc(F)c(F)c2)cc1)Nc1ccc(OCc2ccccc2)cc1`, the IC50 was 20.9 µM.

Regarding `COc1ccc(N2CC(c3nnc(NC(=O)CCc4ccccc4)s3)CC2=O)cc1` (stereo not given), the IC50 is > 40 µM (inactive).

For the molecule `Cc1cccc(-n2ccnc(SCC(=O)Nc3ccc(Cl)cc3F)c2=O)c1`, the IC50 is 16.1 µM.

With `O=C(NC(Cc1ccccc1)c1nc2ccccc2[nH]1)C1CC1` (stereo not given), the IC50 was > 40 µM (inactive).

With `CCOc1ccc2c(c1)c(=O)c(C(=O)c1ccc(C)cc1)cn2CC(=O)Nc1ccc(C)cc1`, the IC50 was > 40 µM (inactive).

Turning to `O=C(Cn1nc2c3c4c(sc3ncn2c1=O)CCCCC4)Nc1ccc(Cl)cc1F`, the IC50 was 10.9 µM.

As for `O=C(Nc1ccc(-n2cccc2)cc1)c1cccc([N+](=O)[O-])c1`, the IC50 is > 40 µM (inactive).

Take `CCN(CC)C(=O)c1sc(NC(=O)c2cc(-c3ccccc3Cl)nc3ccccc23)c(C(N)=O)c1C`: the IC50 was > 40 µM (inactive).

Consider `O=c1c2[nH]c3ccccc3c2ncn1CCC1=CCCCC1`, for which the IC50 was > 40 µM (inactive).

`O=C(c1ccc2occc2c1)N1CCC(S(=O)(=O)c2ccc(-c3ccco3)cc2)CC1`: the IC50 was > 40 µM (inactive).

In the case of `Cc1nc(-c2ccccc2)sc1-c1nc(-c2ccccc2)ncc1S(=O)(=O)c1ccccc1`, the IC50 was > 40 µM (inactive).

On to `COc1cccc2cc(C(=O)Nc3nc(-c4ccncc4)cs3)oc12`, for which the concentration for half-maximal inhibition (IC50) was 9.63 µM.

For `COc1ccc(-c2nc3c(c(=O)c4ccccc4n3C)c(=O)n2Cc2ccco2)cc1`, the half-inhibitory concentration (IC50) is 28.7 µM.

Consider `Cc1ccc(-c2nc3c(c(SCC(=O)c4ccccc4)n2)COC(C)(C)C3)cc1`, for which the IC50 is > 40 µM (inactive).

Regarding `COC(=O)c1ccc(C2c3[nH]c4ccccc4c3C[C@@H]3C(=O)N(c4ccc5c(c4)OCCO5)C(=O)N23)cc1` (stereo not given in full), the IC50 is > 40 µM (inactive).

Consider `Cc1ccc(C(=O)O)cc1NC(=O)C(Sc1cccc(NC(=O)c2cccc(Cl)c2)c1)c1ccccc1` (stereo not given), for which the IC50 was > 40 µM (inactive).

With `CCOc1cc2c(cc1OCC)C(c1cc3c(cc1Br)OCO3)NCC2` (stereo not given), the IC50 was > 40 µM (inactive).

On to `O=C(NC1CCCCCC1)c1cccc(S(=O)(=O)Nc2cc(C(F)(F)F)ccc2Cl)c1`, for which the IC50 was 21.1 µM.

Take `CCCCN1Cc2sc(NC(=O)Nc3ccccc3C)nc2C1=O`: the IC50 is 15.6 µM.

Turning to `CC(=O)c1ccc(NC(=O)CCc2c(C)c3c(C)nn(-c4ccccc4)c3n(C)c2=O)cc1`, the IC50 was > 40 µM (inactive).

`Cc1ccnc(NS(=O)(=O)c2ccc(NC(=O)c3ccc(S(=O)(=O)N(C)Cc4ccccc4)cc3)cc2)n1`: the IC50 was 35.4 µM.

As for `CCOc1ccc(NS(=O)(=O)c2ccc(NC(=O)Nc3ccccc3)cc2)cc1`, the IC50 is > 40 µM (inactive).

Take `COc1ccc(-c2nc(NCCCN3CCOCC3)c3ccccc3n2)cc1`: the IC50 was > 40 µM (inactive).

For `CN1CCc2c(C#N)c(N3CCOCC3)nc(NCC3CCCO3)c2C1` (stereo not given), the IC50 was > 40 µM (inactive).

For the molecule `FC(F)(F)c1cccc(Nc2nc(-c3ccccn3)nc3ccccc23)c1`, the IC50 is > 40 µM (inactive).

For the molecule `Cn1c(C(=O)NCc2ccccn2)cc2c(=O)[nH]c3ccccc3c21`, the IC50 was > 40 µM (inactive).

Turning to `Cc1ccc2[nH]c(=O)c(CN(CC3COCCO3)S(=O)(=O)c3ccc(F)cc3)cc2c1` (stereo not given), the IC50 is > 40 µM (inactive).

Consider `CC(C)CC(=O)Nc1cc(F)c2nc(N3CCOCC3)ccc2c1`, for which the IC50 was > 40 µM (inactive).

As for `Cc1ccccc1-c1noc(-c2cccn(CC(=O)Nc3ccccc3F)c2=O)n1`, the IC50 was > 40 µM (inactive).

In the case of `Cc1cc(C(F)(F)F)n2nc(C3CCN(C(=O)c4cnn(C)c4C)C3)cc2n1` (stereo not given), the IC50 was > 40 µM (inactive).

As to `COc1cc(Cl)c(C)cc1NC(=O)Cn1c(=O)n(CC(=O)NCc2ccco2)c(=O)c2ccccc21`, the IC50 is 16.3 µM.

Regarding `Cc1ccc(-n2nc(C)c3c2NC(=O)CC3C(=O)c2cc3ccccc3o2)cc1` (stereo not given), the IC50 is > 40 µM (inactive).

Take `Cc1c(C(=O)Nc2ccc(Oc3ccccc3)cc2)nnn1-c1cccc(Cl)c1`: the IC50 is > 40 µM (inactive).

Take `O=C(Cn1c(=O)c2sccc2n(CC(=O)OCc2ccccc2)c1=O)NCc1ccccc1Cl`: the IC50 is 16.8 µM.

As for `N#Cc1cc(C(=O)c2cc(Cl)ccc2O)cn(-c2ccccn2)c1=O`, the IC50 was > 40 µM (inactive).

`CCC(=O)Nc1nc2cc(NC(=O)Nc3cc(C)cc(C)c3)ccc2s1`: the IC50 was > 40 µM (inactive).

Turning to `O=c1c(O)c(-c2ccc(O)c(O)c2)oc2cc(O)cc(O)c12`, the half-maximal inhibitory concentration (IC50) was 1.16 µM.

Take `Cc1c(OCC(=O)NCc2ccccc2Cl)ccc2c3c(c(=O)oc12)CCC3`: the IC50 was > 40 µM (inactive).

For `Cc1[nH]nc(NC(=O)C2COc3ccccc3O2)c1-c1ccccc1` (stereo not given), the IC50 is > 40 µM (inactive).

As to `COC(=O)c1ccc(C(=O)Nc2cc3ccccc3cc2NC(=O)c2ccc(C(=O)OC)cc2)cc1`, the IC50 was > 40 µM (inactive).

Consider `N#C/C(=C\c1ccccc1F)c1nnc(N)s1`, for which the IC50 was > 40 µM (inactive).

As to `COc1ccc(Cl)cc1NC(=O)COC(=O)c1cc2ccccc2oc1=O`, the IC50 is 17.5 µM.

`Cc1cccc(C)c1NC(=O)COc1ccccc1-c1nnc(-c2ccccc2)o1`: the IC50 was > 40 µM (inactive).

As for `COc1ccc(CNc2ccc(C(=O)OCc3ccccc3F)cc2S(=O)(=O)Nc2cccc(OC)c2)cc1`, the IC50 was > 40 µM (inactive).

Turning to `CC(NC(=O)c1nc2n(n1)-c1ccccc1S(=O)(=O)N2)c1cc2ccccc2o1` (stereo not given), the IC50 was 30.7 µM.

`N#Cc1ccc(NC(=O)Nc2cccn(Cc3ccccc3F)c2=O)cc1`: the IC50 was > 40 µM (inactive).

With `NC(=O)C1(N2CCCCC2)CCN(c2ncc3c(=O)n(-c4ccccc4)c(=O)[nH]c3n2)CC1`, the IC50 was > 40 µM (inactive).

Turning to `Cc1[nH]c2ccc(F)cc2c(=O)c1CN1CCCCC1`, the IC50 is > 40 µM (inactive).

Regarding `Cc1nnc(-c2ccc3ccn(CC(=O)N4CCN(c5ccccc5)CC4)c3c2)o1`, the IC50 was > 40 µM (inactive).

For the molecule `Cc1cccc(N2CCN(C(=O)c3nc4cccnc4n(C)c3=O)CC2)c1C`, the IC50 is > 40 µM (inactive).

As for `O=C(Nc1ccccc1)Nc1ccc(F)c(-c2nnc(-c3ccccc3)o2)c1`, the IC50 is > 40 µM (inactive).

In the case of `O=c1cc(-c2ccc(O)c(O)c2)oc2cc(O)cc(O)c12`, the IC50 was 1.8 µM.

As for `O=C(O)c1ccccc1C(=O)Nc1ccc(SC(C(=O)Nc2ccccc2Cl)c2ccccc2)cc1` (stereo not given), the IC50 is 16.8 µM.
